Assay results published in patent US20240270715A1, “INHIBITORS OF TRANSGLUTAMINASES” (ZEDIRA GMBH, priority 2021, published 2024).

Legend:
[1] = Caco-2 permeability assay (CacoReady kit); assay type: in vitro ADME; settings: human
How it was run: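 Compounds are tested on pre-formed Caco-2 barriers supplied as a ready-to-use kit, following the kit protocol, and the Papp value is derived to estimate intestinal absorption.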

[2] = Log D by shake flask method (octanol / PBS pH 7.4, HPLC); assay type: physicochemical; settings: octanol / PBS pH 7.4, shake flask; read-out: logD
How it was run: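 Log D is derived by HPLC measurement of how the compound distributes between octanol and pH 7.4 phosphate-buffered saline in a shake flask.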

[3] = molecular target: T1, recombinant human transglutaminase 2 (Homo sapiens, UniProt P21980); assay: Transglutaminase assay: incorporation of dansylcadaverine into dimethylcasein (DCC-assay); assay type: biochemical; settings: recombinant human TG2 10 nM, dansylcadaverine/dimethylcasein; read-out: IC50 TG2
T1 sequence (P21980 1-687): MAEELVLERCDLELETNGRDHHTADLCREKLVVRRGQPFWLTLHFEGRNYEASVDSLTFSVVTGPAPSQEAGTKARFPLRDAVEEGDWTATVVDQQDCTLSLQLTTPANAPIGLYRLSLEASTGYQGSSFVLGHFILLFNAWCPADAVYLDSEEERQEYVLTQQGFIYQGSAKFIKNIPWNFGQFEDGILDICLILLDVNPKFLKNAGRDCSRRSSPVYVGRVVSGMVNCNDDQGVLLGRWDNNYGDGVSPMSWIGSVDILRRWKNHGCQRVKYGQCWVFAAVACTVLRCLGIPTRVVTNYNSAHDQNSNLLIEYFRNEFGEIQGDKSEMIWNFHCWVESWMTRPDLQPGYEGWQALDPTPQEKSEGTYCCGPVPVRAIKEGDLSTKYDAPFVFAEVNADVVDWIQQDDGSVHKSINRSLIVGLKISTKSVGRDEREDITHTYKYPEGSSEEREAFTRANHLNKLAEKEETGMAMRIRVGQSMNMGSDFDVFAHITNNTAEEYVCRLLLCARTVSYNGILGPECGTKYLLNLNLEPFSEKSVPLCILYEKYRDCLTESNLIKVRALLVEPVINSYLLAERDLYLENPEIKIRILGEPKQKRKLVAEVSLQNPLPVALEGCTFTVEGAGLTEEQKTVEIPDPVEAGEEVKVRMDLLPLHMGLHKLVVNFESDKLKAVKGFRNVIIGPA
How it was run: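 Recombinant human TG2 (10 nM final) incorporates dansylcadaverine (16.7 μM) into N,N-dimethylcasein (4 μM) in Tris-HCl buffer, pH 8.0, with 10 mM CaCl2 and 10 mM glutathione. Fluorescence (λex 330, λem 500 nm) followed 30 min. The slope between 20–30 min gives activity versus DMSO control, and IC50 comes from the concentration–activity plot.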

Compound | Papp [1] [×10⁻⁶ cm/s] | logD [2] | IC50 [3] [nM]
CCNC(=O)C(=O)CC[C@H](NC(=O)c1cncc([N+](=O)[O-])c1)C(=O)Nc1cccn(CC(=O)NCC23CC4CC(CC(C4)C2)C3)c1=O [Compound I-65, (S)-N1-(1-(2-(1-adamantylmethylamino)-2-oxoethyl)-2-oxo-1,2-dihydropyridin-3-yl)-N6-ethyl-2-(5-nitronicotinamido)-5-oxohexanediamide] | 1 to 10 | 1 to 3 | < 150
CCNC(=O)C(=O)CC[C@H](NC(=O)c1cncc(C(=O)O)c1)C(=O)Nc1cccn(CC(=O)NC(C)C23CC4CC(CC(C4)C2)C3)c1=O (stereo partly drawn) [Compound I-66] | < 1 | 3 to 5 | 150 to 600
CCNC(=O)C(=O)CC[C@H](NC(=O)c1c(C)nc2sccn12)C(=O)Nc1cccn(CC(=O)N(C)C2C3CC4CC(C3)CC2C4)c1=O (stereo partly drawn) [Compound I-67, (S)-N1-ethyl-N6-(1-(2-(2-adamantyl(methyl)amino)-2-oxoethyl)-2-oxo-1,2-dihydropyridin-3-yl)-5-(6-methylimidazo[2,1-b]thiazole-5-carboxamido)-2-oxohexanediamide] | < 1 | 3 to 5 | 600 to 3500
CCNC(=O)C(=O)CC[C@H](NC(=O)c1oc2ccccc2c1C)C(=O)Nc1cccn(CC(=O)N[C@@H]2C[C@@H]3CC[C@H]2C3)c1=O [Compound I-68, (S)-N1-(1-(2-((1S,2R,4R)-bicyclo[2.2.1]heptan-2-ylamino)-2-oxoethyl)-2-oxo-1,2-dihydropyridin-3-yl)-N6-ethyl-2-(3-methylbenzofuran-2-carboxamido)-5-oxohexanediamide] | 1 to 10 | 1 to 3 | < 150
CCNC(=O)C(=O)CC[C@H](NC(=O)c1oc2ccccc2c1C)C(=O)Nc1cccn(CC(=O)N[C@H]2C[C@H]3CC[C@]2(C)C3(C)C)c1=O [Compound I-69, (S)-N1-ethyl-5-(3-methylbenzofuran-2-carboxamido)-2-oxo-N6-(2-oxo-1-(2-oxo-2-((1R,2S,4R)-1,7,7-trimethylbicyclo[2.2.1]heptan-2-ylamino)ethyl)-1,2-dihydropyridin-3-yl)hexanediamide] | 1 to 10 | 3 to 5 | 150 to 600
CCNC(=O)C(=O)CC[C@H](NC(=O)c1oc2ccccc2c1C)C(=O)Nc1cccn(CC(=O)N[C@@H]2C[C@H]3CC[C@@H]2C3)c1=O [Compound I-70, (S)-N1-(1-(2-((1R,2R,4S)-bicyclo[2.2.1]heptan-2-ylamino)-2-oxoethyl)-2-oxo-1,2-dihydropyridin-3-yl)-N6-ethyl-2-(3-methylbenzofuran-2-carboxamido)-5-oxohexanediamide] | 1 to 10 | 1 to 3 | < 150
CCNC(=O)C(=O)CC[C@H](NC(=O)c1ccncc1)C(=O)Nc1cccn(CC(=O)NC23CCC(CC2)C3)c1=O [Compound I-71, (S)-N1-(1-(2-((1s,4R)-bicyclo[2.2.1]heptan-1-ylamino)-2-oxoethyl)-2-oxo-1,2-dihydropyridin-3-yl)-N6-ethyl-2-(isonicotinamido)-5-oxohexanediamide] | < 1 | < 1 | 150 to 600
CCNC(=O)C(=O)CC[C@H](NC(=O)c1ccnnc1)C(=O)Nc1cccn(CC(=O)NC2C3CCC2CC3)c1=O (stereo partly drawn) [Compound I-72, (S)-N1-(1-(2-(bicyclo[2.2.1]heptan-7-ylamino)-2-oxoethyl)-2-oxo-1,2-dihydropyridin-3-yl)-N6-ethyl-5-oxo-2-(pyridazine-4-carboxamido)hexanediamide] | < 1 | < 1 | 150 to 600
CCNC(=O)C(=O)CC[C@H](NC(=O)c1cccnn1)C(=O)Nc1cccn(CC(=O)N[C@@H]2C[C@@H]3C=C[C@H]2C3)c1=O [Compound I-73, (S)-N1-(1-(2-((1R,2R,4R)-bicyclo[2.2.1]hept-5-en-2-ylamino)-2-oxoethyl)-2-oxo-1,2-dihydropyridin-3-yl)-N6-ethyl-5-oxo-2-(pyridazine-3-carboxamido)hexanediamide] | < 1 | < 1 | 150 to 600
CCNC(=O)C(=O)CC[C@H](NC(=O)c1cn[nH]n1)C(=O)Nc1cccn(CC(=O)NC2CC3CCC2CC3)c1=O (stereo partly drawn) [Compound I-74, (2S)-N1-(1-(2-(bicyclo[2.2.2]octan-2-ylamino)-2-oxoethyl)-2-oxo-1,2-dihydropyridin-3-yl)-N6-ethyl-5-oxo-2-(2H-1,2,3-triazole-4-carboxamido)hexanediamide] | < 1 | < 1 | 150 to 600
CCNC(=O)C(=O)CC[C@H](NC(=O)c1cn(C)nn1)C(=O)Nc1cccn(CC(=O)N[C@@H]2C[C@H]3CC[C@]2(C)C3(C)C)c1=O [Compound I-75, (S)-N1-ethyl-5-(1-methyl-1H-1,2,3-triazole-4-carboxamido)-2-oxo-N6-(2-oxo-1-(2-oxo-2-((1R,2R,4R)-1,7,7-trimethylbicyclo[2.2.1]heptan-2-ylamino)ethyl)-1,2-dihydropyridin-3-yl)hexanediamide] | 1 to 10 | < 1 | 150 to 600
CCNC(=O)C(=O)CC[C@H](NC(=O)c1ncn(C)n1)C(=O)Nc1cccn(CC(=O)N[C@@H]2C[C@@H]3C[C@H]([C@H]2C)C3(C)C)c1=O [Compound I-76, (S)-N1-ethyl-5-(1-methyl-1H-1,2,4-triazole-3-carboxamido)-2-oxo-N6-(2-oxo-1-(2-oxo-2-((1R,2R,3R,5S)-2,6,6-trimethylbicyclo[3.1.1]heptan-3-ylamino)ethyl)-1,2-dihydropyridin-3-yl)hexanediamide] | < 1 | 1 to 3 | 150 to 600
CCNC(=O)C(=O)CC[C@H](NC(=O)c1coc2ccccc12)C(=O)Nc1cccn(CC(=O)N[C@H]2C[C@H]3C[C@@H]([C@@H]2C)C3(C)C)c1=O [Compound I-77, (S)-2-(benzofuran-3-carboxamido)-N6-ethyl-5-oxo-N1-(2-oxo-1-(2-oxo-2-((1S,2S,3S,5R)-2,6,6-trimethylbicyclo[3.1.1]heptan-3-ylamino)ethyl)-1,2-dihydropyridin-3-yl)hexanediamide] | 1 to 10 | 3 to 5 | 150 to 600
CCNC(=O)C(=O)CC[C@H](NC(=O)c1csc2ccccc12)C(=O)Nc1cccn(CC(=O)NC23CCCC4CC(CCC42)C3)c1=O (stereo partly drawn) [Compound I-78, (S)-2-(benzo[b]thiophene-3-carboxamido)-N6-ethyl-N1-(1-(2-(4-homoisotwistane-3-amino)-2-oxoethyl)-2-oxo-1,2-dihydropyridin-3-yl)-5-oxohexanediamide] | 1 to 10 | 3 to 5 | 150 to 600
CCNC(=O)C(=O)CC[C@H](NC(=O)c1cnn(C)c1)C(=O)Nc1cccn(CC(=O)NC23CC4CC5C2C[C@@H]2C[C@H]5C(C4)[C@H]3C2)c1=O [Compound I-79, (S)-N1-ethyl-N6-(1-(2-(diamantane-1-amino)-2-oxoethyl)-2-oxo-1,2-dihydropyridin-3-yl)-5-(1-methyl-1H-pyrazole-4-carboxamido)-2-oxohexanediamide] | < 1 | 1 to 3 | 150 to 600
CCNC(=O)C(=O)CC[C@H](NC(=O)c1ccnn1C)C(=O)Nc1cccn(CC23CC4CC(CC(C4)C2)C3)c1=O [Compound I-81, (S)-N1-(1-(1-adamantylmethyl)-2-oxo-1,2-dihydropyridin-3-yl)-N6-ethyl-2-(1-methyl-1H-pyrazole-5-carboxamido)-5-oxohexanediamide] | < 1 | 1 to 3 | 150 to 600
CCNC(=O)C(=O)CC[C@H](NC(=O)c1snnc1C1CC1)C(=O)Nc1cccn(CC23CC4CC(CC(O)(C4)C2)C3)c1=O [Compound I-82, (S)-N1-(1-((3-hydroxy-1-adamantyl)methyl)-2-oxo-1,2-dihydropyridin-3-yl)-2-(4-cyclopropyl-1,2,3-thiadiazole-5-carboxamido)-N6-ethyl-5-oxohexanediamide] | < 1 | < 1 | 150 to 600
CCNC(=O)C(=O)CC[C@H](NC(=O)c1cnsn1)C(=O)Nc1cccn(CC23CC4CC(CC(Br)(C4)C2)C3)c1=O [Compound I-83, (S)-N1-(1-((3-bromo-1-adamantyl)methyl)-2-oxo-1,2-dihydropyridin-3-yl)-N6-ethyl-5-oxo-2-(1,2,5-thiadiazole-3-carboxamido)hexanediamide] | < 1 | 3 to 5 | 150 to 600
